How the values were obtained:
[1] = system: wheat; test: Growth height of wheat, greenhouse (Example 7); format: in vivo, wheat (Opal variety); conditions: for Plant height relative: control 100
Excerpt: (§1) In the greenhouse, the four cereals wheat ("Opal" variety), rye ("Petkuser"), barley ("Villa") and oats ("Flamingskrone") were sown in plastic dishes 11.5 cm in diameter in a sandy loam adequately supplied with nutrients. The active ingredients were applied at various rates to the soil and to the leaves. When applied to the soil, the active ingredient were sprayed onto the surface of the soil on the day of sowing; in the case of leaf treatment, the leaves were sprayed in the usual manner at a growth height of the plants of 10 cm. During the 18 day growth period, the treated plants grew much more slowly than the untreated control, a fact later confirmed by measurements of the stem length. Measurements were taken of 100 plants from each series.
(§2) The prior art agent used for comparison purposes was N-2-chloroethyl-N,N,N-trimethylammonium chloride (CCC; German Printed Application DAS No. 1,294,734).

[2] = system: barley; test: Growth height of barley, greenhouse (Example 9); format: in vivo, barley (Villa); conditions: for Plant height relative: control 100
Excerpt: as §1, §2

[3] = system: oats; test: Growth height of oats, greenhouse (Example 10); format: in vivo, oats (Flamingskrone); conditions: for Plant height relative: control 100
Excerpt: as §1, §2

[4] = system: rye; test: Growth height of rye, greenhouse (Example 8); format: in vivo, rye (Petkuser); conditions: for Plant height relative: control 100
Excerpt: as §1, §2

[5] = system: lawns; test: Long-term action on lawns (Example 14); format: in vivo; conditions: for First cutting, green weight relative / First cutting, growth height relative / Second cutting, green weight relative / Second cutting, growth height relative / Third cutting, green weight relative: control 100

## Brc1ccc(N2N=NC3C4CC(C5N=NC45)C32)cc1 (stereo not shown) [drawing 347]
[1]; leaf, 0.125 kg/ha
  Plant height: 25.0 cm
  Plant height relative: 83.3
[1]; leaf, 0.5 kg/ha
  Plant height: 23.5 cm
  Plant height relative: 78.3
[1]; leaf, 1.0 kg/ha
  Plant height: 21.0 cm
  Plant height relative: 70.0
[1]; leaf, 2.0 kg/ha
  Plant height: 21.5 cm
  Plant height relative: 71.7
[1]; leaf, 4.0 kg/ha
  Plant height: 20.0 cm
  Plant height relative: 66.7

## Clc1ccc(N2N=NC3C4CC(C5N=NC45)C32)cc1 (stereo not shown) [drawing 354]
[2]; leaf, 0.125 kg/ha
  Plant height: 24.0 cm
  Plant height relative: 80.0
[2]; leaf, 0.5 kg/ha
  Plant height: 23.0 cm
  Plant height relative: 76.7
[2]; leaf, 1.0 kg/ha
  Plant height: 21.5 cm
  Plant height relative: 71.7
[2]; leaf, 2.0 kg/ha
  Plant height: 20.5 cm
  Plant height relative: 68.3
[2]; leaf, 4.0 kg/ha
  Plant height: 18.5 cm
  Plant height relative: 61.7

## Brc1ccc(N2N=NC3C4CC(C5N=NC45)C32)cc1 (stereo not shown) [drawing 353]
[2]; soil, 0.5 kg/ha
  Plant height: 30.5 cm
  Plant height relative: 96.8
[2]; soil, 1.0 kg/ha
  Plant height: 29.0 cm
  Plant height relative: 92.1
[2]; soil, 2.0 kg/ha
  Plant height: 24.5 cm
  Plant height relative: 77.8
[2]; soil, 6.0 kg/ha
  Plant height: 19.0 cm
  Plant height relative: 60.3

## Clc1ccc(N2N=NC3C4CC(C5N=NC45)C32)cc1 (stereo not shown) [drawing 358]
[3]; leaf, 0.125 kg/ha
  Plant height: 23.5 cm
  Plant height relative: 83.9
[3]; leaf, 0.5 kg/ha
  Plant height: 22.5 cm
  Plant height relative: 80.4
[3]; leaf, 1.0 kg/ha
  Plant height: 21.0 cm
  Plant height relative: 75.0
[3]; leaf, 2.0 kg/ha
  Plant height: 19.0 cm
  Plant height relative: 67.9
[3]; leaf, 4.0 kg/ha
  Plant height: 17.0 cm
  Plant height relative: 60.7

## Clc1ccc(N2N=NC3C4CC(C5N=NC45)C32)cc1 (stereo not shown) [drawing 344]
[1]; soil, 0.5 kg/ha
  Plant height: 28.5 cm
  Plant height relative: 91.9
[1]; soil, 1.0 kg/ha
  Plant height: 23.0 cm
  Plant height relative: 74.2
[1]; soil, 2.0 kg/ha
  Plant height: 20.5 cm
  Plant height relative: 66.1
[1]; soil, 6.0 kg/ha
  Plant height: 10.5 cm
  Plant height relative: 33.9

## Clc1ccc(N2N=NC3C4CC(C5N=NC45)C32)cc1 (stereo not shown) [drawing 346]
[1]; leaf, 0.125 kg/ha
  Plant height: 24.0 cm
  Plant height relative: 80.0
[1]; leaf, 0.5 kg/ha
  Plant height: 22.0 cm
  Plant height relative: 73.3
[1]; leaf, 1.0 kg/ha
  Plant height: 20.0 cm
  Plant height relative: 66.6
[1]; leaf, 2.0 kg/ha
  Plant height: 19.0 cm
  Plant height relative: 63.3
[1]; leaf, 4.0 kg/ha
  Plant height: 17.5 cm
  Plant height relative: 58.3

## Clc1ccc(N2N=NC3C4CC(C5N=NC45)C32)cc1 (stereo not shown) [drawing 352]
[2]; soil, 0.5 kg/ha
  Plant height: 28.0 cm
  Plant height relative: 88.9
[2]; soil, 1.0 kg/ha
  Plant height: 28.0 cm
  Plant height relative: 88.9
[2]; soil, 2.0 kg/ha
  Plant height: 23.5 cm
  Plant height relative: 74.6
[2]; soil, 6.0 kg/ha
  Plant height: 16.5 cm
  Plant height relative: 52.4

## Brc1ccc(N2N=NC3C4CC(C5N=NC45)C32)cc1 (stereo not shown) [drawing 351]
[4]; leaf, 0.125 kg/ha
  Plant height: 25.0 cm
  Plant height relative: 84.7
[4]; leaf, 0.5 kg/ha
  Plant height: 20.5 cm
  Plant height relative: 69.5
[4]; leaf, 1.0 kg/ha
  Plant height: 22.0 cm
  Plant height relative: 74.6
[4]; leaf, 2.0 kg/ha
  Plant height: 18.0 cm
  Plant height relative: 61.0
[4]; leaf, 4.0 kg/ha
  Plant height: 18.5 cm
  Plant height relative: 62.7

## Brc1ccc(N2N=NC3C4CC(C5N=NC45)C32)cc1 (stereo not shown) [drawing 349]
[4]; soil, 0.5 kg/ha
  Plant height: 23.0 cm
  Plant height relative: 79.3
[4]; soil, 1.0 kg/ha
  Plant height: 22.5 cm
  Plant height relative: 77.6
[4]; soil, 2.0 kg/ha
  Plant height: 19.0 cm
  Plant height relative: 65.5
[4]; soil, 6.0 kg/ha
  Plant height: 9.0 cm
  Plant height relative: 31.0

## Clc1ccc(N2N=NC3C4CC(C5N=NC45)C32)cc1 (stereo not shown) [drawing 350]
[4]; leaf, 0.125 kg/ha
  Plant height: 24.5 cm
  Plant height relative: 83.1
[4]; leaf, 0.5 kg/ha
  Plant height: 20.0 cm
  Plant height relative: 67.8
[4]; leaf, 1.0 kg/ha
  Plant height: 18.5 cm
  Plant height relative: 62.7
[4]; leaf, 2.0 kg/ha
  Plant height: 17.5 cm
  Plant height relative: 59.3
[4]; leaf, 4.0 kg/ha
  Plant height: 16.0 cm
  Plant height relative: 54.2

## Fc1ccc(N2N=NC3C4CC(C5N=NC45)C32)cc1 (stereo not shown)
[5]; 0.5 kg/ha
  First cutting, green weight: 23.1 g
  First cutting, growth height: 15.0 cm
  Second cutting, green weight: 21.8 g
  Second cutting, growth height: 10.0 cm
  Third cutting, green weight: 14.6 g
  First cutting, green weight relative: 65.4
  First cutting, growth height relative: 83.3
  Second cutting, green weight relative: 81.6
  Second cutting, growth height relative: 68.0
  Third cutting, green weight relative: 96.1
[5]; 1.0 kg/ha
  First cutting, green weight: 20.5 g
  First cutting, growth height: 12.5 cm
  Second cutting, green weight: 21.4 g
  Second cutting, growth height: 9.0 cm
  Third cutting, green weight: 13.5 g
  First cutting, green weight relative: 58.1
  First cutting, growth height relative: 69.5
  Second cutting, green weight relative: 80.1
  Second cutting, growth height relative: 61.2
  Third cutting, green weight relative: 88.8
[5]; 2.0 kg/ha
  First cutting, green weight: 9.8 g
  First cutting, growth height: 7.5 cm
  Second cutting, green weight: 10.1 g
  Second cutting, growth height: 5.0 cm
  Third cutting, green weight: 9.5 g
  First cutting, green weight relative: 27.8
  First cutting, growth height relative: 41.7
  Second cutting, green weight relative: 37.8
  Second cutting, growth height relative: 34.0
  Third cutting, green weight relative: 62.5
[5]; 4.0 kg/ha
  First cutting, green weight: 7.9 g
  First cutting, growth height: 6.5 cm
  Second cutting, green weight: 7.1 g
  Second cutting, growth height: 2.0 cm
  Third cutting, green weight: 7.9 g
  First cutting, green weight relative: 22.4
  First cutting, growth height relative: 36.1
  Second cutting, green weight relative: 26.6
  Second cutting, growth height relative: 13.6
  Third cutting, green weight relative: 52.0

## Clc1ccc(N2N=NC3C4CC(C5N=NC45)C32)cc1 (stereo not shown) [drawing 348]
[4]; soil, 0.5 kg/ha
  Plant height: 22.5 cm
  Plant height relative: 77.6
[4]; soil, 1.0 kg/ha
  Plant height: 19.0 cm
  Plant height relative: 65.5
[4]; soil, 2.0 kg/ha
  Plant height: 13.0 cm
  Plant height relative: 44.8
[4]; soil, 6.0 kg/ha
  Plant height: 8.5 cm
  Plant height relative: 29.3

## Brc1ccc(N2N=NC3C4CC(C5N=NC45)C32)cc1 (stereo not shown) [drawing 345]
[1]; soil, 0.5 kg/ha
  Plant height: 27.5 cm
  Plant height relative: 88.7
[1]; soil, 1.0 kg/ha
  Plant height: 22.5 cm
  Plant height relative: 72.6
[1]; soil, 2.0 kg/ha
  Plant height: 15.5 cm
  Plant height relative: 50.0
[1]; soil, 6.0 kg/ha
  Plant height: 11.5 cm
  Plant height relative: 31.7

## Clc1ccc(N2N=NC3C4CC(C5N=NC45)C32)cc1 (stereo not shown) [drawing 356]
[3]; soil, 0.5 kg/ha
  Plant height: 25.0 cm
  Plant height relative: 89.3
[3]; soil, 1.0 kg/ha
  Plant height: 24.0 cm
  Plant height relative: 85.7
[3]; soil, 2.0 kg/ha
  Plant height: 21.0 cm
  Plant height relative: 75.0
[3]; soil, 6.0 kg/ha
  Plant height: 15.0 cm
  Plant height relative: 53.6

## Brc1ccc(N2N=NC3C4CC(C5N=NC45)C32)cc1 (stereo not shown) [drawing 355]
[2]; leaf, 0.125 kg/ha
  Plant height: 25.5 cm
  Plant height relative: 85.0
[2]; leaf, 0.5 kg/ha
  Plant height: 23.5 cm
  Plant height relative: 78.3
[2]; leaf, 1.0 kg/ha
  Plant height: 22.0 cm
  Plant height relative: 73.3
[2]; leaf, 2.0 kg/ha
  Plant height: 20.5 cm
  Plant height relative: 68.3
[2]; leaf, 4.0 kg/ha
  Plant height: 20.0 cm
  Plant height relative: 66.7

Source: patent publication US4257941A, “Polycyclic nitrogen-containing compounds” (BASF Aktiengesellschaft, priority 1976, dated 1981)
